Each structure is given as a SMILES string.

Data set [1] has as its system rabbit erythrocytes. Briefly: Agar diffusion hemolysis assay. Conditions: 300 pmol peptide spotted (3 μL of 100 μM in PBS); 5% (v/v) rabbit erythrocytes in 0.7% BHI agar; 37 °C, 16 h; mixtures 1 : 1. In kind it is cell-based. How it is done:
Cytolysin was used as a positive control.
Defibrinated rabbit erythrocytes (Hemostat) were washed by 5-fold dilution in cold sterile PBS, followed by centrifugation at 1000g for 10 min and decanting. This process was repeated until the supernatant was clear. The washed erythrocytes were diluted to a concentration of 5% (v/v) in molten BHI containing 0.7% agar cooled to 50 °C and the mixture was immediately deposited onto a warm 2% BHI agar plate. After setting at room temperature for at least 30 min, 3 μL of peptide solution diluted in PBS to a concentration of 100 μM was deposited onto the agar plate and the plate was allowed to stand for another 30 min. The plate was then incubated at 37 °C for 16 h before documentation.
Background: A growth-free zone around the sample is the usual read-out of agar diffusion tests.

The subject of data set [2] is rabbit erythrocytes. It is filed as cell-based. Particulars: total peptide concentration 2 μM; 1 h at 37 °C; mixture 1 : 1. Here is the method: Solution phase hemolysis assays were conducted as described previously.[36]
Fig. S2. […] A) Hemoglobin release […]
erythrocytes were treated with 0.03% v/v triton X-100. Negative control contained only buffer. A total peptide concentration of 2 µM was used in each case. B) Extent of hemolysis after treating freshly washed rabbit erythrocytes with 1:1 of CylLS”:CylLL” at 37 ̊C for 1 h. Data was fit to a […]
(1 picture or pasted object on this page, not shown here)

Data set [3] concerns M. luteus ATCC 4698. Briefly: Time-kill assay. Conditions: total peptide 20 μM, 30 °C; for killing activity in time-kill assay: mixture 1 : 1. It is filed as cell-based, Micrococcus luteus. How it is done:
The solutions were incubated at 30 °C with shaking. At each time point, 20 μL was removed from each culture and immediately streaked onto tryptic soy broth agar plates. The plates were incubated at 30 °C for 36–48 h and colonies were counted.

Data set [4] has as its system T1, lipid II consumption by E. coli PBP1b.
T1 construct: made in house
Briefly: In vitro peptidoglycan synthesis assay with lipid II substrate (TLC). Conditions: 4 equivalents of peptide relative to lipid II; 30 °C, 2 h; thin layer chromatography; mixture 1 : 1. In kind it is biochemical. How it is done:
A solution of lipid II (1.5 nmol) in 1 : 1 CHCl3 : MeOH that was prepared by a previously disclosed procedure[87] was added to a low binding Eppendorf tube and concentrated to remove any organic solvent. Triton X-100 (1% v/v, 2 μL) was added to the residue and the mixture was sonicated briefly before diluting with 37.5 μL of reaction buffer (20 mM MES, 2 mM MgCl2, 2 mM CaCl2, pH = 5.5). The solution was then transferred to a new low binding Eppendorf tube containing lanthipeptide. The mixture was vortexed and briefly sonicated to ensure dissolution. The mixtures were incubated for 10 min at room temperature before adding PBP1b (6 μg), which was prepared as described elsewhere,[77] and then incubated at 30 °C. After 2 h, 150 μL nBuOH : AcOH-pyridine (2 : 1) was added to the reaction mixture and the organic layer was removed, washed with 40 μL of water and then concentrated. The residue was dissolved in 12 μL of 1 : 1 MeOH : CHCl3 and 3 μL was deposited onto a silica gel plate. The TLC plate was developed in mobile phase (88 : 48 : 10 : 1 CHCl3 : MeOH : H2O : NH4OH) for 10 min before drying and staining the plate with cerium ammonium sulfate. The plate was documented immediately after the staining procedure was completed.

Data set [5] in a line: In vitro pore formation assay, pyranine-encapsulated liposomes. Conditions: total peptide 5 μM; for pore formation activity in liposomes: pH-dependent pyranine fluorescence, DOPC liposomes. How it is done:
To investigate the lipid II-dependence of the pore formation activity of bibacillin 1, pyranine-encapsulated liposomes were prepared containing or lacking lipid II and pore formation was monitored via pH-dependent pyranine fluorescence.[79]
This assay was conducted as described elsewhere.[79]

Data set [6] can be described thus: Dynamic light scattering of aggregates. In kind it is physicochemical. Particulars: phosphate buffered saline pH = 7.4, room temperature, total peptide 1 μM; for average diameter of aggregates (DLS): SDS-free. How it is done:
Fig. 6 Exploring the quorum sensing mechanism of bibacillin 1. (A) Assays to assess whether bibacillin 1 triggers the CylR1/R2 system. A reporter strain of E. faecalis with LacZ expression under the control of the CylR1/R2 system was seeded into soft agar containing X-gal. Next, 300 pmol of Bib1α, Bib1β, and Bib1βDha either separately or as 1 : 1 mixtures were deposited onto the soft agar layer. Nisin (300 pmol) and CylLS′′ (30 pmol) were used as negative and positive controls, respectively. (B) Size distributions obtained using dynamic light scattering showing the oligomeric states of Bib1α, Bib1β, and Bib1α : Bib1β (1 : 1) in phosphate buffered saline (pH = 7.4) at room temperature. In each case, the total peptide concentration was 1 μM.
Enzyme mixtures used for molecular biology were purchased from New England BioLabs (NEB) (Ipswich, MA). Chemicals were purchased from Sigma-Aldrich (St. Louis, MO). Growth media were purchased from Becton, Dickinson and Company (Franklin Lake, NJ) or Fisher Scientific (Pittsburgh, PA). Single stranded DNA used as primers for PCR were purchased from Integrated DNA Technologies (Newark, NJ). Gene fragments were purchased from Twist Bioscience (San Francisco, CA). The sequences of primers and gene fragments can be found in Tables S2 and S3 (ESI ^†), respectively. Whole plasmid sequencing was performed by Plasmidsaurus using Oxford Nanopore Technology with custom analysis and annotation. Matrix-assisted laser desorption/ionization time-of-flight mass spectrometry (MALDI-TOF MS) analysis was performed on a Bruker UltrafleXtreme MALDI-TOF mass spectrometer (Bruker Daltonics) at the University of Illinois School of Chemical Sciences Mass Spectrometry. All samples analyzed by MALDI-TOF MS were co-crystallized with Super DHB MALDI matrix purchased from Sigma-Aldrich. Semi-preparative reversed phase HPLC (R-HPLC) was performed on an Agilent 1260 infinity II LC system. Fluorescence emission intensities and optical densities were determined using a Biotek Synergy H4. Dynamic light scattering (DLS) analysis was performed on a Zetasizer Nanoseries (Malvern Panalytical,). CylLS′′ and CylLL′′ were prepared using a previously described procedure.[36] Nisin was isolated from commercially available crude extracts of Lactococcus lactis (Sigma Aldrich).

A short description of data set [7]: SDS-PAGE analysis of oligomerization. It is filed as physicochemical. Particulars: in the presence of SDS. How it is done: To determine whether bibacillin 1 could quorum sense through an aggregation mechanism, the aggregation propensity of bibacillin 1 was analyzed using SDS-PAGE and dynamic light scattering (DLS). […] Since SDS can influence aggregation, the aggregation of bibacillin 1 was further investigated under SDS-free conditions using DLS (Fig. 6B). Bib1α exists in solution as aggregates that are 159 nm in diameter on average (PDI = 0.224) and Bib1β forms aggregates that are 291 nm in diameter on average (PDI = 0.384). […] Confirmation of this hypothesis will require in vitro studies with Bib1R1/R2.

The test system of data set [8] is M. luteus ATCC 4698. Briefly: Membrane depolarization assay, DiSC3(5). Particulars: DiSC3(5) fluorescence; M. luteus OD600 = 0.2; 30 min; peptides individually.
Description: (B) DiSC3(5) fluorescence signal after incubation of M. luteus (OD600 = 0.2) with Bib1α or Bib1β individually or as a 1 : 1 mixture for 30 min. […] In all cases, a total peptide concentration of 5 μM was used.
The mixture was transferred to a 96-well black plate and the fluorescence of DiSC3(5) was measured using an excitation wavelength of 622 nm and an emission wavelength of 670 nm throughout the experiment. The fluorescence signal was measured for 8 min prior to the addition of peptides. After adding peptides, the fluorescence signal was monitored for 30 min. The maximum fluorescence signal achieved over the entire course of the experiment was considered to be a metric of membrane depolarization activity and was plotted as a function of peptide concentration.

Consider `C=C(NC(=O)[C@H](C)NC(=O)[C@@H]1CS[C@H](C)[C@H](N)C(=O)NC(=C)C(=O)N2CCC[C@H]2C(=O)N[C@@H](C)C(=O)N1)C(=O)N[C@@H](C)C(=O)N[C@@H](CCSC)C(=O)N[C@@H](CC(C)C)C(=O)N[C@@H](Cc1ccc(O)cc1)C(=O)N[C@@H](CC(C)C)C(=O)N[C@@H](CCC(N)=O)C(=O)NCC(=O)N[C@H](C(=O)NC(=CC)C(=O)N[C@H](C(=O)NC(=C)C(=O)N[C@@H](CC(C)C)C(=O)NCC(=O)N[C@@H](CC(C)C)C(=O)N[C@@H]1CSC[C@@H](C(=O)O)NC(=O)[C@H](Cc2c[nH]cn2)NC(=O)[C@H](CCSC)NC(=O)[C@H](CCCNC(=N)N)NC1=O)C(C)C)C(C)C` [Bib1α], for which, in data set [1], the “hemolytic activity on an agar plate” value is on record as “showed hemolytic activity”. For the same compound, the “hemolysis in solution (hemoglobin release, absorbance at 415 nm)” value in data set [2] is “did not induce hemolysis”. For the same compound, the “time after which cells began to recover from treatment” value in data set [3] is 4 h. In addition, the “killing activity in time-kill assay” value in data set [3] (about 10^6 CFU per mL) is on record as “bactericidal”. The “protection of lipid II from consumption by PBP1b” value in data set [4] is on record as “incapable of protecting lipid II”. Also, the “lipid II dependence of pore formation activity” value in data set [5] (DOPC liposomes containing or lacking 0.1 mol% lipid II) was “somewhat enhanced by the addition of lipid II”. For the same compound, the “pore formation activity in liposomes” value in data set [5] is on record as “showed pore formation activity”. Also, in data set [6], the “PDI of aggregates (DLS)” value was determined as 0.224 and the “average diameter of aggregates (DLS)” value is listed as 159 nm. In addition, the “oligomerization by SDS-PAGE” value in data set [7] was “oligomeric in the presence of SDS”. Besides, in data set [8], the “membrane depolarization activity, all concentrations tested” value was “did not show strong membrane depolarization activity”.

`C=C(NC(=O)[C@H](Cc1ccccc1)NC(=O)CNC(=O)[C@H](CC(C)C)NC(=O)[C@H](C)NC(=O)[C@H](CC(C)C)NC(=O)CNC(=O)CNC(=O)CNC(=O)[C@@H](NC(=O)[C@H](C)NC(=O)[C@@H]1CS[C@H](C)[C@H](N)C(=O)NC(=CC)C(=O)N2CCC[C@H]2C(=O)N[C@@H](C(C)C)C(=O)N1)[C@@H](C)CC)C(=O)N[C@H](C(=O)N[C@@H]1CSC[C@@H](C(=O)O)NC(=O)[C@H](Cc2ccc(O)cc2)NC(=O)[C@H]([C@@H](C)CC)NC(=O)[C@H](CCCCN)NC1=O)[C@@H](C)CC` [Bib1βDha]: the “hemolytic activity on an agar plate” value in data set [1] is recorded as “did not show any hemolytic activity beyond that of a negative control”.

As to `CC=C1NC(=O)[C@@H](N)[C@@H](C)SC[C@@H](C(=O)N[C@@H](C)C(=O)N[C@H](C(=O)NCC(=O)NCC(=O)NCC(=O)N[C@@H](CC(C)C)C(=O)N[C@@H](C)C(=O)N[C@@H](CC(C)C)C(=O)NCC(=O)N[C@@H](Cc2ccccc2)C(=O)N[C@@H](CO)C(=O)N[C@H](C(=O)N[C@@H]2CSC[C@@H](C(=O)O)NC(=O)[C@H](Cc3ccc(O)cc3)NC(=O)[C@H]([C@@H](C)CC)NC(=O)[C@H](CCCCN)NC2=O)[C@@H](C)CC)[C@@H](C)CC)NC(=O)[C@H](C(C)C)NC(=O)[C@@H]2CCCN2C1=O` [Bib1β], in data set [1], the “hemolytic activity on an agar plate” value is recorded as “showed hemolytic activity”. Moreover, the “hemolysis in solution (hemoglobin release, absorbance at 415 nm)” value in data set [2] was “did not induce hemolysis”. Also, in data set [3] (about 10^6 CFU per mL), the “time after treatment at which minimal cell counts were reached” value is given as 8 h and the “killing activity in time-kill assay” value was “bactericidal”. Also, the “protection of lipid II from consumption by PBP1b” value in data set [4] was “incapable of protecting lipid II”. In addition, the “pore formation activity in liposomes” value in data set [5] is “did not show pore formation activity”. Also, in data set [6], the “PDI of aggregates (DLS)” value worked out at 0.384, the “size distribution of aggregates (DLS)” value is “bimodal” and the “average diameter of aggregates (DLS)” value was found to be 291 nm. In data set [7], the “oligomerization by SDS-PAGE” value is on record as “oligomeric in the presence of SDS”. In addition, in data set [8], the “membrane depolarization activity, all concentrations tested” value is given as “did not show strong membrane depolarization activity”.

The record behind these values is publication PMC11385697, “Bibacillin 1: a two-component lantibiotic from Bacillus thuringiensis” (RSC Chemical Biology, 2024).
